The target in one assay is T1, TBP1 (Homo sapiens, UniProt P19438).
T1 construct: soluble extracellular domain of TNF receptor type 1, p55; host or cells: CHO
T1 sequence (P19438 41-201 limits assumed): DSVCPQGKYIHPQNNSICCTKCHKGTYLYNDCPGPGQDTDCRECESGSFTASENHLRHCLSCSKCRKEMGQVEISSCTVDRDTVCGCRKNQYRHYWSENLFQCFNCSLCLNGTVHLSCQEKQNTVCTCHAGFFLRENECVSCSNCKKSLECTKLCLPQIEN
Description: Binding of TBP1 to peptides on beads, ELISA with soluble substrate (pNPP, O.D. at 405 nm). Background: ELISA stands for enzyme-linked immunosorbent assay.

In the next assay the test system is rabbit immunoglobulins. Nature of the assay: Immunostaining of library beads containing N-DSer-DLys-LVal to verify specificity. In kind it is binding. As to the method: 7. First screening of the polystyrene peptide library with TBP1. One quarter (400 µl packed) of the total number of beads were blocked with 5% FBS in PBS (1 ml for 45 minutes), to avoid nonspecific binding, and incubated with TBP1 (1 ml at a concentration of 10µg/ml in FBS/PBS for 45 minutes) followed by polyclonal rabbit anti-TBP1 (1:500 in FBS/PBS, 1 ml for 1 hour) and alkaline phosphatase conjugated goat anti-rabbit Ig antibodies (1:2000 in FBS/PBS, 1 ml for 40 minutes). The signal was generated by BCIP/NBT substrate (12 ml in 9 cm petri dish; further details as in 5 above). More than 50 stained beads were selected and three of them were subjected to sequencing. […] The BCIP/NBT substrate that we used in order to stain the beads could not be destained by any treatment that we tried (organic solvents, urea, SDS, NaOH, boiling, sonication and combinations of all of the above), and we therefore decided to use another alkaline phosphatase substrate which could be readily destained. […]

Assay [1] relates to Immunoglobulins from other animal species and from humans. Description: Immunostaining of library beads containing N-DSer-DLys-LVal to verify specificity, other immunoglobulins. In kind it is binding.
Assay [2] has as its system Monoclonal antibody to human β-endorphin. Nature of the assay: Staining of beads with anti-endorphin McAb clone 3-E7 (alkaline phosphatase/BCIP). In kind it is binding, mouse. The conditions noted are these: antibody 200 ng/ml, BCIP 2 hours. The method, then: Staining of the beads was performed using the following steps (all incubation steps were performed with continuous mixing of the beads): • a. Washes of the beads with wash buffer. • b. Incubation of the beads with blocking buffer for 45 minutes to block non-specific interactions. • c. Incubation of the beads with the monoclonal antibody to human β-endorphin diluted to 200 ng/ml in blocking buffer for 40 minutes. • d. Six washes with wash buffer. • e. Incubation of the beads with the polyclonal rabbit antibodies against mouse IgG conjugated with alkaline phosphatase, diluted 1:1000 in blocking buffer for 40 minutes. • f. Six washes with wash buffer and one wash with Tris (25mM), NaC1 (125 mM), Tween (0.1%). • g. Incubation of the beads with BCIP diluted to 500 ug/ml in 0.1M Tris pH 9.0, for 2 hours. • h. Two washes with H2O, transfer of the beads to petri dishes and observation for blue stained beads (using a stereomicroscope).

N-DAla-DGlu-LMet: on TBP1 (relative to background, peptide on around 100,000 beads, soluble substrate), the OD result is given as “ten times higher than background”. Further, the “OD in presence of the TBP1” value on TBP1 (relative to the antibodies only) is “four times higher”. Also, at TBP1 (without TBP1), the “response with antibodies alone” value is “lack of response”.

In the case of N-DSer-DLys-LVal, the “recognition of rabbit immunoglobulins” value in the assay on rabbit immunoglobulins (from both rabbit anti-TBP1 antiserum and normal rabbit serum) is on record as “specifically recognized”. Also, in the assay on rabbit immunoglobulins (surface staining), the “Immunostaining performed with and without TBP1” value is listed as “specificity to the antibodies”. The “recognition of immunoglobulins from other animal species and from humans” value in assay [1] is “not recognized”.

For the substance “n-His-Pro-Tyr-Pro-Pro (HPYPP; on TentaGel beads; printed: His-Pro-Tyr-Pro-Pro) [Model HPYPP]”, the “Number of Blue-stained Beads” value in assay [2] was “none of the beads”.

In the case of n-Tyr-Gly-Gly-Phe-Leu [Model YGGFL], the “Number of Blue-stained Beads” value in assay [2] is recorded as “most of the beads”.

These data come from patent EP0639584B1, “Preparation and screening of highly diverse peptide libraries for binding activity” (INTERPHARM LABORATORIES LTD., priority 1993, dated 1995).
